# In EP0319906A2, “Novel quinoline derivatives, processes for preparation thereof and antibacterial agent containing them” (Dainippon Pharmaceutical Co., Ltd., priority 1987, dated 1989):
# Like-named read-outs stand apart in the source and are kept apart here.
# Assays:
# S. pyogenes A65 = assay: In vitro antibacterial activity, twofold agar-dilution MIC; format: cell-based; settings: Streptococcus pyogenes; S. pyogenes A65; Mueller-Hinton agar, 20-hour incubation at 37 °C; calculated for free base; read-out: minimum inhibitory concentrations (MIC)
# Experimental: (§1) The figures in the table show minimum inhibitory concentrations (MIC) (µg/ml), calculated for free base. […] One loopful of an overnight culture of test organisms in Mueller-Hinton broth was inoculated onto 10 ml drug- containing agar layers in petri dishes. Bacterial inocula contained approximately 10⁶ colonyl-forming units. […] The MIC was defined as the lowest drug concentration which prevented visible bacterial growth.
# S. aureus No. 80 = assay: as above; format: cell-based; settings: Staphylococcus aureus; S. aureus No. 80; Mueller-Hinton agar, 20-hour incubation at 37 °C; calculated for free base; read-out: minimum inhibitory concentrations (MIC)
# Experimental: as §1
# S. epidermidis No. 8 = assay: as above; format: cell-based; settings: Staphylococcus epidermidis; S. epidermidis No. 8; Mueller-Hinton agar, 20-hour incubation at 37 °C; calculated for free base; read-out: minimum inhibitory concentrations (MIC)
# Experimental: as §1
# E. coli NIHJ JC-2 = assay: as above; format: cell-based; settings: Escherichia coli, NIHJJC2; E. coli NIHJ JC-2; Mueller-Hinton agar, 20-hour incubation at 37 °C; calculated for free base; read-out: minimum inhibitory concentrations (MIC)
# Experimental: as §1
# P. aeruginosa 12 = assay: as above; format: cell-based; settings: Pseudomonas aeruginosa; P. aeruginosa 12; Mueller-Hinton agar, 20-hour incubation at 37 °C; calculated for free base; read-out: minimum inhibitory concentrations (MIC)
# Experimental: as §1
# S. marcescens S-9 = assay: as above; format: cell-based; settings: Serratia marcescens, S9; S. marcescens S-9; Mueller-Hinton agar, 20-hour incubation at 37 °C; calculated for free base; read-out: minimum inhibitory concentrations (MIC)
# Experimental: as §1
# E. coli P-5101 = assay: as above; format: cell-based; settings: Escherichia coli, P5101; E. coli P-5101; Mueller-Hinton agar, 20-hour incubation at 37 °C; calculated for free base; read-out: minimum inhibitory concentrations (MIC)
# Experimental: as §1
# S. aureus 209 JC-1 = assay: as above; format: cell-based; settings: Staphylococcus aureus, 209JC1; S. aureus 209 JC-1; Mueller-Hinton agar, 20-hour incubation at 37 °C; calculated for free base; read-out: minimum inhibitory concentrations (MIC)
# Experimental: as §1
# S. aureus Terajima = assay: as above; format: cell-based; settings: Staphylococcus aureus; S. aureus Terajima; Mueller-Hinton agar, 20-hour incubation at 37 °C; calculated for free base; read-out: minimum inhibitory concentrations (MIC)
# Experimental: as §1
# [1] = tested on: C. Trachomatics G/ur 1317; assay: Antichlamydia activity, MIC in McCoy cells (inclusion bodies); format: cell-based; settings: C. Trachomatics G/ur 1317; McCoy cells, 36 °C for 40-48 hours; calculated for free base; read-out: minimum inhibitory concentrations (MIC)
# Experimental: (§2) The figures in the table show minimum inhibitory concentrations (MIC), (μg/ml), calculated for free base. Minimum inhibitory concentrations (MIC) were determined as follows. […] The cells were trypsinized and suspended in the same culture medium at a cell concentration of 1-2 x 10^5 cells/ml. One ml of the cell suspension was pipetted into flat-bottomed plastic tubes (14 mm in diameter) containing a cover slip (12 mm in diameter). The tubes were incubated in 5 % CO2-air at 36 °C for 20 hours. One-half ml of a chlamydial suspension (ca. 1-4 x 103 inclusion body forming units) was added into each tube, which was then centrifuged at 1500 x g for 60 minutes. The tubes were incubated for 1 hour at 36 °C. […] After further incubation at 36 °C for 40-48 hours, the cells on the cover glasses were stained with the Giemsa's solution. […] The MIC was defined as the lowest drug concentration where there were no inclusion bodies in all the cells on the cover slip.
# [2] = tested on: C. Trachomatics G/ur 1242; assay: as above; format: cell-based; settings: C. Trachomatics G/ur 1242; McCoy cells, 36 °C for 40-48 hours; calculated for free base; read-out: minimum inhibitory concentrations (MIC)
# Experimental: as §2
# [3] = tested on: C. Trachomatics G/ur 1448; assay: as above; format: cell-based; settings: C. Trachomatics G/ur 1448; McCoy cells, 36 °C for 40-48 hours; calculated for free base; read-out: minimum inhibitory concentrations (MIC)
# Experimental: as §2
# C. Trachomatics G/ur 931 = assay: as above; format: cell-based; settings: C. Trachomatics G/ur 931; McCoy cells, 36 °C for 40-48 hours; calculated for free base; read-out: minimum inhibitory concentrations (MIC)
# Experimental: as §2
# in vivo = settings: mouse, po
# Experimental: A suspension containing each of compounds of this invention in various concentrations was orally given to male mice (ddY) at a dose of 0.1 ml per 10 g of body weight. The number of dead mice was counted after 7 days, and the value of median lethal dose (LD₅₀, mg/kg) was calculated in accordance with the Behrens-Kaerber method.
SMILES,MIC (S. pyogenes A65) [µg/mL],MIC (S. aureus No. 80) [µg/mL],MIC (S. epidermidis No. 8) [µg/mL],MIC (E. coli NIHJ JC-2) [µg/mL],MIC (P. aeruginosa 12) [µg/mL],MIC (S. marcescens S-9) [µg/mL],MIC (E. coli P-5101) [µg/mL],MIC (S. aureus 209 JC-1) [µg/mL],MIC (S. aureus Terajima) [µg/mL],MIC [1] [µg/mL],MIC [2] [µg/mL],MIC [3] [µg/mL],MIC (C. Trachomatics G/ur 931) [µg/mL],"LD50 at 7 days (in vivo; male, ddY) [mg/kg]","LD50 at 7 days (in vivo; orally given to male mice (ddY), dead mice counted after 7 days, Behrens-Kaerber method, read-out: LD₅₀) [mg/kg]"
"Cc1c(F)c(N2CCNCC2)c(C#N)c2c1c(=O)c(C(=O)O)cn2C1CC1 [Compound D, 8-cyano-1-cyclopropyl-6-fluoro-5-methyl-7-(1-piperazinyl)-1,4-dihydro-4-oxoquinoline-3-carboxylic acid, reference compound]",1.56,0.1,0.1,0.0125,0.39,0.39,0.0125,0.1,0.1,3.13,3.13,3.13,1.56,–,–
"Cc1c(F)c(N2C[C@@H](C)N[C@@H](C)C2)cc2c1c(=O)c(C(=O)O)cn2C1CC1 [Compound 4, 1-cyclopropyl-6-fluoro-5-methyl-7-(cis-3,5-dimethyl-1-piperazinyl)-1,4-dihydro-4-oxoquinoline-3-carboxylic acid]",0.1,0.05,0.05,0.0125,0.2,0.39,0.025,0.025,0.025,–,–,–,–,> 2000,–
"Cc1c(F)c(N2CCC(N)C2)c(F)c2c1c(=O)c(C(=O)O)cn2C1CC1 (centres unmarked) [Compound 3, 7-(3-amino-1-pyrrolidinyl)-1-cyclopropyl-6,8-difluoro-5-methyl-1,4-dihydro-4-oxoquinoline-3-carboxylic acid]",0.2,0.0125,0.0125,0.0125,0.2,0.05,0.0125,0.0125,0.0125,0.013,0.013,0.013,0.013,> 2000,–
"Cc1c(F)c(N2CCNCC2)cc2c1c(=O)c(C(=O)O)cn2C1CC1 [Compound 5, 1-cyclopropyl-6-fluoro-5-methyl-7-(1-piperazinyl)-1,4-dihydro-4-oxoquinoline-3-carboxylic acid]",0.39,0.0125,0.025,0.0125,0.1,0.2,0.0125,0.05,0.025,–,–,–,–,–,> 2000
